Patent US7365096B2, “Methods for selectively inhibiting Janus tyrosine kinase 3 (Jak3)” (Board of Regents, The University of Texas System, priority 2002, dated 2008)
“Also recorded” adds a separate entry of the source.

How the values were obtained:
[1] = system: LEW donor or third-party BUF heart allografts; test: Transplantation tolerance: heart allograft challenge of long-term surviving recipients; type: in vivo, rat; conditions: recipients made tolerant with NC1153; n=3
Protocol: (§1) ACI rat recipients of LEW kidney allografts were treated for 14 days with NC1153 delivered by daily oral gavage. […] ACI rat recipients of LEW kidney allografts were treated for 7 days and thereafter 3×/week up to 90 days with 160 mg/kg NC1153 delivered by daily oral gavage. […] The mechanism of tolerance was examined when irradiated (400 rads) ACI recipients of LEW heart allografts were adoptively transferred with 30×10^6 purified T cells from tolerant recipients.

[2] = system: LEW or third-party heart allografts; test: Adoptive transfer of T cells from tolerant recipients into irradiated ACI heart allograft recipients; type: in vivo, rat
Protocol: as §1

[3] = molecular target: T1, Jak3 (Homo sapiens, UniProt P52333); test: IL-2 activated Jak3 tyrosine phosphorylation in YT cells (Western blot); type: cell-based; design: endogenous in cells; host or cells: human YT cells; conditions: 1-100 μM, 2 hours, 100 nM IL-2
T1 sequence (P52333 1-1124): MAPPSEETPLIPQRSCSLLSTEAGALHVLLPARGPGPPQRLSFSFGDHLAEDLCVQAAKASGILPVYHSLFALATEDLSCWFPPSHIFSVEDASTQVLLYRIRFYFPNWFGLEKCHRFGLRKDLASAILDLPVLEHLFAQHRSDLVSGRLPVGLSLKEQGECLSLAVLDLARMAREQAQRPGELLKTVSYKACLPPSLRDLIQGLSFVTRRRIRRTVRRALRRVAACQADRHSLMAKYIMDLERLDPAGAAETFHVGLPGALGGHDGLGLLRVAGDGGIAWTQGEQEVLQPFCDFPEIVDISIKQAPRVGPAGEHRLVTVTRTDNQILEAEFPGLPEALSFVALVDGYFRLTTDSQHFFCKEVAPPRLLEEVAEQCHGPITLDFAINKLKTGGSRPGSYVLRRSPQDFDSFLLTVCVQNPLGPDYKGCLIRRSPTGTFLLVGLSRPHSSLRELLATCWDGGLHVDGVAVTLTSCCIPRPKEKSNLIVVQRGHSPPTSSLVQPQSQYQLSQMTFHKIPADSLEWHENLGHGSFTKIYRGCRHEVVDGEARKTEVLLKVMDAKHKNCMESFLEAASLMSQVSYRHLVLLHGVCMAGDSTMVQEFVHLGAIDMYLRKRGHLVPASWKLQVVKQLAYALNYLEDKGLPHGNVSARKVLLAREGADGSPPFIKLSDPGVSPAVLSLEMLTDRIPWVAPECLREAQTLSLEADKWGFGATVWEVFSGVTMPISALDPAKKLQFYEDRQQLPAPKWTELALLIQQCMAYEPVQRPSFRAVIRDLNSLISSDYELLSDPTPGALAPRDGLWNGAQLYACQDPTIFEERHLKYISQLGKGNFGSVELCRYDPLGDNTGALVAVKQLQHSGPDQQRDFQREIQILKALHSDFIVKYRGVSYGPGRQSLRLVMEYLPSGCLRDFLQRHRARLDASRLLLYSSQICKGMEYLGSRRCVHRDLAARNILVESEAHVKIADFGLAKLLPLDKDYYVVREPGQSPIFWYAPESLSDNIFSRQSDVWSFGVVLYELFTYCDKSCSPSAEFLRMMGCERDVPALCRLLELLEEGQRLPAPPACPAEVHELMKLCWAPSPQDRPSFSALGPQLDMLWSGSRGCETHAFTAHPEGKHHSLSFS
Protocol: Solubilization of membrane proteins, immunoprecipitation, and Western blot analysis. Frozen cell pellets were thawed on ice and solubilized in 1% TX-100 lysis buffer (10^8 cells/ml) and clarified by centrifugation, as previously described.^16 For human T-cells, supernates were incubated rotating end over end for 2 hours at 4° C. with either 5 μl/ml polyclonal rabbit antisera raised against peptides derived from the unique COOH-termini of Jak3 (amino acid [a.a.] 1104-1124), carboxyl termini of human Stat5a (a.a. 775-794) or Stat5b (a.a. 777-787).^26 Ab and immunoprecipitated proteins were captured by incubation for 30 minutes with Protein A-Sepharose beads (Pharmacia, Piscataway, N.J.), sedimented for purification, and eluted by boiling in 2×SDS-sample buffer (20% Glycerol, 10% 2-Mercaptoethanol, 4.6% SDS, 0.004% Bromophenol blue in 0.125 M Tris pH 6.8) for 4 minutes. For phosphoMapk assays, approximately 25 μg of total cell lysate was dissociated in SDS-sample buffer and separated on 10% (all others on 7.5%) SDS-PAGE under reducing conditions. […]

Structure (SMILES): CN(C)CC1CCCCCCCCCC(CN(C)C)C1=O (mixture of isomers) [649641P (NC1153)]
- survival of LEW donor heart allografts in long-term surviving recipients [1]: > 100 days
- survival of third-party BUF heart allografts in long-term surviving recipients [1]: 7.0±1.0 days
- rejection of LEW heart allografts after transfer of tolerant T cells ([2]; irradiated (400 rads) ACI recipients, 30×10^6 T cells from NC1153-tolerant recipients, irradiated controls 15±1.0): 40.0±15.0 days
- rejection of third-party heart allografts after transfer of tolerant T cells ([2]; irradiated ACI recipients, T cells from NC1153-tolerant recipients, n=2): 12±1.0 days
- tyrosine phosphorylation of Jak3 [3]: inhibited in a dose-dependent fashion; also recorded: inhibited tyrosine phosphorylation
